# In patent US9018414B2, “Substituted 3-phenylpropionic acids and the use thereof” (Bayer Intellectual Property GmbH, priority 2009, dated 2015):
# Test system: recombinant guanylate cyclase reporter cell line
# Assay: Action at recombinant guanylate cyclase reporter cell line (CHO reporter cell)
# Assay type: cell-based
# Conditions: MEC = minimal effective concentration; read-out: sGC-activating activity in the CHO reporter cell in vitro, MEC
# Method: The cellular action of the compounds according to the invention is determined at a recombinant guanylate cyclase reporter cell line, as described in F. Wunder et al., Anal. Biochem. 339, 104-112 (2005).
row,SMILES,minimal effective concentration [µM]
1,C[C@H]([C@H](C(=O)Nc1cc(C[C@H](C)C(=O)O)ccc1Cl)c1ccc(C2CC(F)(F)C2)cc1)C(F)(F)F [Example 100],0.003
2,"CCC[C@@H](CC(=O)O)c1ccc(Cl)c(NC(=O)[C@H](c2ccc(Cl)cc2)[C@@H](C)C(F)(F)F)c1 (single isomer, unassigned) [Example 82]",0.00023
3,"CC[C@@H](CC(=O)O)c1ccc(Cl)c(NC(=O)[C@H](c2ccc(Cl)cc2)[C@@H](C)C(F)(F)F)c1 (single isomer, unassigned) [Example 87]",0.001
4,C[C@H]([C@H](C(=O)Nc1cc(C2(CC(=O)O)CC(F)(F)C2)ccc1Cl)c1ccc(Cl)cc1)C(F)(F)F [Example 102],0.001
5,"C[C@H](C(C(=O)Nc1cc(C2(CC(=O)O)CCC2)ccc1Cl)c1ccc(Cl)cc1)C(F)(F)F (stereo partly drawn) [Example 28, [1-(4-Chloro-3-{[(3R)-2-(4-chlorophenyl)-4,4,4-trifluoro-3-methylbutanoyl]amino}-phenyl)cyclobutyl]acetic acid]",0.001
6,"C[C@@H](CC(=O)O)c1ccc(Cl)c(NC(=O)C(c2ccc(Cl)cc2)C2CCCC2(F)F)c1 (stereo partly drawn) [Example 10, (3S)-3-(4-chloro-3-{[(4-chlorophenyl)(2,2-difluoro-cyclopentyl)acetyl]amino}phenyl)butanoic acid]",0.0052
7,"CC[C@@H](Cc1ccc(Cl)c(NC(=O)[C@H](c2ccc(Cl)cc2)[C@@H](C)C(F)(F)F)c1)C(=O)O [Example 30, (+)-(2S)-2-(4-Chloro-3-{[(2S,3R)-2-(4-chlorophenyl)-4,4,4-trifluoro-3-methylbutanoyl]amino}-benzyl)butanoic acid]",0.0003
8,"C[C@H]([C@H](C(=O)Nc1cc(CCC(=O)O)ccc1Cl)c1ccc(CC(F)(F)F)cc1)C(F)(F)F (racemic) [Example 5, 3-[4-Chloro-3-({4,4,4-trifluoro-3-methyl-2-[4-(2,2,2-trifluoroethyl)phenyl]butanoyl}amino)phenyl]-propanoic acid]",0.003
9,"C[C@H]([C@H](C(=O)Nc1cc(C2CC2C(=O)O)ccc1F)c1ccc(Cl)cc1)C(F)(F)F (single isomer, unassigned) [Example 53]",0.3
10,C[C@H]([C@H](C(=O)Nc1cc(CC(C)(C)C(=O)O)ccc1Cl)c1ccc(Cl)cc1)C(F)(F)F [Example 89],0.003
11,"CC(C(=O)O)C(C)c1ccc(F)c(NC(=O)[C@H](c2ccc(Cl)cc2)[C@@H](C)C(F)(F)F)c1 (stereo partly drawn) [Example 50, threo-3-(3-{[(2S,3R)-2-(4-chlorophenyl)-4,4,4-tri-fluoro-3-methylbutanoyl]amino}-4-fluorophenyl)-2-methylbutanoic acid]",0.03
12,"CCC(C)(Cc1ccc(Cl)c(NC(=O)[C@H](c2ccc(Cl)cc2)[C@@H](C)C(F)(F)F)c1)C(=O)O (single isomer, unassigned; (+)) [Example 71]",0.01
13,"C[C@H]([C@H](C(=O)Nc1cc([C@H](CC(=O)O)C(F)(F)F)ccc1Cl)c1ccc(Cl)cc1)C(F)(F)F (single isomer, unassigned) [Example 84]",0.001
14,C[C@H]([C@H](C(=O)Nc1cc(C2(CC(=O)O)CC2)ccc1Cl)c1ccc(Cl)cc1)C(F)(F)F [Example 96],0.001
15,"C[C@H]([C@H](C(=O)Nc1cc(C2(CC(=O)O)CC2)ccc1F)c1ccc(Cl)cc1)C(F)(F)F [Example 18, (+)-[1-(3-{[(2S,3R)-2-(4-Chlorophenyl)-4,4,4-trifluoro-3-methylbutanoyl]amino}-4-fluorophenyl)-cyclopropyl]acetic acid]",0.01
16,"CCCC(CC(=O)O)c1ccc(Cl)c(NC(=O)[C@H](c2ccc(Cl)cc2)[C@@H](C)C(F)(F)F)c1 (stereo partly drawn) [Example 81, 3-(4-Chloro-3-{[(2S,3R)-2-(4-chlorophenyl)-4,4,4-trifluoro-3-methylbutanoyl]amino}phenyl)-hexanoic acid]",0.0003
17,"CC(Cc1ccc(F)c(NC(=O)C(c2ccc(Cl)cc2)[C@@H](C)C(F)(F)F)c1)C(=O)O (stereo partly drawn) [Example 37, 3-(3-{[(3R)-2-(4-Chlorophenyl)-4,4,4-trifluoro-3-methylbutanoyl]amino}-4-fluorophenyl)-2-methylpropanoic acid]",0.01
18,C[C@H]([C@H](C(=O)Nc1cc(C2(CC(=O)O)CCC2)ccc1Cl)c1ccc(Cl)cc1)C(F)(F)F [Example 90],0.001
19,"CCc1ccc([C@@H](C(=O)Nc2cc(C(C)CC(=O)O)ccc2Cl)[C@@H](C)C(F)(F)F)cc1 (stereo partly drawn) [Example 7, 3-(4-chloro-3-{[(2S,3R)-2-(4-ethylphenyl)-4,4,4-tri-fluoro-3-methylbutanoyl]amino}phenyl)butanoic acid]",0.0002
20,"C[C@H]([C@H](C(=O)Nc1cc(CCC(=O)O)ccc1Cl)c1ccc(C(C)(C)C)cc1)C(F)(F)F [Example 2, (+)-3-(3-{[(2S,3R)-2-(4-tert-butylphenyl)-4,4,4-trifluoro-3-methylbutanoyl]amino}-4-chlorophenyl)-propanoic acid]",0.0003
21,"C[C@@H](Cc1ccc(Cl)c(NC(=O)C(c2ccc(Cl)cc2)C2CCC(F)(F)C2)c1)C(=O)O (single isomer, unassigned) [Example 105]",0.03
22,CC(C(C(=O)Nc1cc(C[C@H](C)C(=O)O)ccc1Cl)c1ccc(CC(F)(F)F)cc1)C(F)(F)F (stereo partly shown) [Example 99],0.01
